According to patent US20210338609A1, “COMPOSITIONS FOR ADMINISTRATION TO ANIMALS TO INCREASE GUT NON-PROTEIN NITROGEN LEVELS” (D.I.T Technologies Ltd, priority 2018, published 2021):
Like-named read-outs stand apart in the source and are kept apart here.

Target: T1, urease (Canavalia ensiformis, UniProt P07374)
T1 construct: purchased Siemens Azostix reagent test strip
Type: biochemical
Details: for urea converted to ammonia: within 60 seconds
Source text: In an embodiment, the physiologically acceptable composition may have a pH of substantially 2. […] The capacity of a composition containing urea to produce ammonia toxicity in ruminant animals can be measured with a urease test strip. These strips contain the enzyme urease. Urease is specific to urea and catalyses the breakdown to ammonia, and the strip undergoes a colour change when the urease strip is exposed to ammonia.
These strips contain the enzyme urease and the indicator bromothymol blue. Urease is specific to urea and breaks it down to ammonia. […] Therefore, the strip turns from yellow to green when the urease strip is exposed to urea. One strip was exposed to a solution of urea at the rate of 1 gram per litre.

T1 sequence (P07374 whole entry, looked up): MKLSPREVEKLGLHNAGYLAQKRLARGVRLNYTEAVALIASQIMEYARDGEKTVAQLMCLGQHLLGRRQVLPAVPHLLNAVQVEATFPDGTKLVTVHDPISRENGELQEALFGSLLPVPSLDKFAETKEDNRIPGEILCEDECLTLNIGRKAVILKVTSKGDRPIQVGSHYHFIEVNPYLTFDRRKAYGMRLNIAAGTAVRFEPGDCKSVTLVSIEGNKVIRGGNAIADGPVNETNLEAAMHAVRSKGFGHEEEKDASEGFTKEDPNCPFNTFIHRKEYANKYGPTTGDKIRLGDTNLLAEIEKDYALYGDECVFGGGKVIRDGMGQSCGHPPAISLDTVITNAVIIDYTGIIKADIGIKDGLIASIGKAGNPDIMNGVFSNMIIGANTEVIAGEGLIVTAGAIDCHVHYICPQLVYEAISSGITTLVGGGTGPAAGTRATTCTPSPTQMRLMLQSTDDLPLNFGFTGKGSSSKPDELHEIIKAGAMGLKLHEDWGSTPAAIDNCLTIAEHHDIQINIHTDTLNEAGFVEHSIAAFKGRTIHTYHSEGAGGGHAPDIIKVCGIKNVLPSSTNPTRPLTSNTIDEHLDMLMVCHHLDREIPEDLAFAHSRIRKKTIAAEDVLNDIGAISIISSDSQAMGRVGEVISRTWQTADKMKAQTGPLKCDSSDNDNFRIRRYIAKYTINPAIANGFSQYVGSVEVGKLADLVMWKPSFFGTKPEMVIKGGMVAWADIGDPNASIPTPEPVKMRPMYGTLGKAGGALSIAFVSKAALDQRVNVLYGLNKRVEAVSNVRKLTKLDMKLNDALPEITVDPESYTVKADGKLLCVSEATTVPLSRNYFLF

SMILES | colour change of urease test strip (ammonia production) (urea phosphate at 5 grams per litre) | urea converted to ammonia (urea phosphate, 5 grams per litre) | colour change of urease test strip (ammonia production) (solution of urea at 1 gram per litre) | urea converted to ammonia (urea only mix, 1 gram per litre)
NC(N)=O.O=P(O)(O)O [urea phosphate] | unchanged | none | – | –
NC(N)=O [urea] | – | – | turned from the unexposed yellow colour to a deep green | all
